Experimental data as given in patent EP1032561B1, “SUBSTITUTED OXIMES AS NEUROKININ ANTAGONISTS” (SCHERING CORPORATION, priority 1997, dated 1999).

What was measured:
NK1 receptor = NK1 receptor (Homo sapiens, UniProt P25103); assay: neurokinin receptor binding assay, NK1
From the text: (§1) The in vitro and in vivo activity of the compounds of formula I can be determined by various procedures known in the art, such as a test for their ability to inhibit the activity of the NK1 agonist Substance P, an isolated hamster trachea NK2 assay, a test of the effect of NK1 antagonists on Substance P-induced airway microvascular leakage, measurement of NK2 activity in vivo in guinea pigs, measurement of bronchoconstriction due to NKA, and neurokinin receptor binding assay(s). Typical procedures are described in WO96/34857, published November 7, 1996. NK3 activity is determined by following a procedure similar to that described in the literature, e.g., Molecular Pharmacol., 48 (1995), p. 711-716.
(§2) % Inhibition is the difference between the percent of maximum specific binding (MSB) and 100%. The percent of MSB is defined by the following equation, wherein "dpm" is disintegrations per minute: % MSB =((dpm of unknown) - (dpm of nonspecific binding))/((dpm of total binding) - (dpm of nonspecific binding))X 100 [formula]

NK2 receptor = target: T1, NK2 receptor (Homo sapiens, UniProt P21452); assay: neurokinin receptor binding assay, NK2
T1 sequence (P21452 1-398): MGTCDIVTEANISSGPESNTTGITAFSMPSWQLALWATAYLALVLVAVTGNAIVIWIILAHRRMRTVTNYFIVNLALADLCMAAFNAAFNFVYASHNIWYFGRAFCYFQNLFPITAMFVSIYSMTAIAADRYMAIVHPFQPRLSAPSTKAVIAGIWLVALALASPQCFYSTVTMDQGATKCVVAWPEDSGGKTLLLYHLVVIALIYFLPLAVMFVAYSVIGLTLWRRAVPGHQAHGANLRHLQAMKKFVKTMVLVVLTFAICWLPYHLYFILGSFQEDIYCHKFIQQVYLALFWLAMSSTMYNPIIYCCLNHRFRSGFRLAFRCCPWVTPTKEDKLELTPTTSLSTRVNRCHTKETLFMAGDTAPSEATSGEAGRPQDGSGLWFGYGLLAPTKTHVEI
From the text: as §1, §2

Chain of NK1 receptor (P25103 whole entry, species assumed): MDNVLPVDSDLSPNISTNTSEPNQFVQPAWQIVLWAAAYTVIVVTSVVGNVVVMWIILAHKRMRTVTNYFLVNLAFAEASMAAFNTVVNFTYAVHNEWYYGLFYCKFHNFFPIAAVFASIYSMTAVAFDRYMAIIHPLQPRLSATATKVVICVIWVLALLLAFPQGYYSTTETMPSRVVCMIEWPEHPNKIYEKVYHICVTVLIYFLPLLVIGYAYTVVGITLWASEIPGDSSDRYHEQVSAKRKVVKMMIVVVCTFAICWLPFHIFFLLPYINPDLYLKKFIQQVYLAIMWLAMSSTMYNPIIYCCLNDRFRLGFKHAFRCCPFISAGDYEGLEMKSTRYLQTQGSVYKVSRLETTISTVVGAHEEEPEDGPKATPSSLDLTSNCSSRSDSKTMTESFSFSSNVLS

SMILES: CON=C(CN(C)C(=O)c1cc(C(F)(F)F)cc(C(F)(F)F)c1)C(CCN1CCC(O)(c2ccccc2)CC1)c1ccc(Cl)c(Cl)c1 (centres unmarked) [Example 11]
- Ki (NK1 receptor): 3.6 nM
- Ki (NK2 receptor): 9.2 nM
